One test deals with KRAS G13D (Homo sapiens (Human), UniProt P01116+P62937, G13D). The experiment in a line: Ras-Raf (BRAF RBD) disruption / FRET / MOA assay, KRAS G13D. The format is biochemical. As to conditions: read-out: IC50* KRAS G13D FRET data. In a few lines:
(§1)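 A 10-point, 3-fold dilution series topping at 30 μM final was incubated 3 h at 25° C with the Ras/cyclophilin A/BRAF RBD mixture.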

For another test, the target named is KRAS G12V (Homo sapiens (Human), UniProt P01116+P62937, G12V). The experiment in a line: Ras-Raf (BRAF RBD) disruption / FRET / MOA assay, KRAS G12V. The format is biochemical. As to conditions: read-out: IC50* KRAS G12V FRET data. In a few lines:
as §1

Another test has as its target KRAS Q61H (Homo sapiens (Human), UniProt P01116+P62937, Q61H). The test is described as follows: Ras-Raf (BRAF RBD) disruption / FRET / MOA assay, KRAS Q61H. The format is biochemical. As to conditions: Ras-Raf disruption/FRET/MOA assay; class symbols; read-out: KRAS Q61H FRET data IC50. In a few lines:
(§2)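 Compounds (30 μM top final, 10-point 3-fold dilutions) incubated 3 h at 25° C with nucleotide-loaded Ras, cyclophilin A and BRAF RBD. Detection with 10 nM anti-His Eu-W1024 and 50 nM anti-GST allophycocyanin over another 1.5 h. Lowered TR-FRET ratio relative to DMSO wells gives IC50.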

In the next test the test system is NCI-H358 (K-Ras G12C). The test is described as follows: CellTiter-Glo cell viability assay, NCI-H358. The format is cell-based, human. As to conditions: Homo sapiens, NCI-H358, 120 h, NCI-H358, 5-day treatment; class symbols; read-out: Additional H358 Cell Viability assay data (K-Ras G12C, IC50). In a few lines:
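Compounds were dispensed directly onto K-Ras mutant cells and incubated until day 5, then plates were equilibrated to room temperature for about 30 minutes before CellTiter-Glo luminescence. Signals were normalized as (sample/average DMSO)*100 and fitted by four-parameter logistic fit.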
A general note: ATP-based viability assays read luminescence as a measure of living cells.

For another test, the target named is NRAS G12C (Homo sapiens (Human), UniProt P01111+P62937, G12C). The experiment in a line: Ras-Raf (BRAF RBD) disruption / FRET / MOA assay, NRAS G12C. The format is biochemical. As to conditions: read-out: IC50* NRAS G12C FRET data. In a few lines:
as §1

For a further test, the target named is NRAS WT (Homo sapiens (Human), UniProt P01111+P62937). The experiment in a line: Ras-Raf (BRAF RBD) disruption / FRET / MOA assay, NRAS WT. The format is biochemical. As to conditions: read-out: IC50* NRAS WT FRET data. In a few lines:
as §2

For the next test, the target named is KRAS WT (Homo sapiens (Human), UniProt P01116+P62937). The test is described as follows: Ras-Raf (BRAF RBD) disruption / FRET / MOA assay, KRAS WT. The format is biochemical. As to conditions: read-out: IC50* KRAS WT FRET data. In a few lines: as §1
Chain of KRAS WT (P01116-2 other isoform, or with tags, fused parts or gaps): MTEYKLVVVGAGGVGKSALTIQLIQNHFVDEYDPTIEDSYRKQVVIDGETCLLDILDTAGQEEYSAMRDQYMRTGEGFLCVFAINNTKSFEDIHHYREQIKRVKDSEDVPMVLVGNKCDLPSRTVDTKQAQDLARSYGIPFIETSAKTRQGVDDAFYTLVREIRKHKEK
Chain of KRAS WT (P62937 whole entry): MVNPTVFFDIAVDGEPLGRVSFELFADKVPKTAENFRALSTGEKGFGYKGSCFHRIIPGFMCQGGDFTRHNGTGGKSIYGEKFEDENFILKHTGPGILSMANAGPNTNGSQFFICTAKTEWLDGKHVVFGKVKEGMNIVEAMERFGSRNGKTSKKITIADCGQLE
Another test addresses NRAS Q61R (Homo sapiens (Human), UniProt P01111+P62937, Q61R). The experiment in a line: Ras-Raf (BRAF RBD) disruption / FRET / MOA assay, NRAS Q61R. The format is biochemical. As to conditions: NRAS Q61R; Ras-Raf disruption/FRET/MOA assay; read-out: IC50* NRAS Q61R FRET data. The method, boiled down: as §2
Another test concerns the target K-Ras G13C (Homo sapiens (Human), UniProt P01116+P62937, G13C). The test is described as follows: Ras-Raf (BRAF RBD) disruption / FRET / MOA assay, KRAS G13C. The format is biochemical. As to conditions: KRAS G13C; Ras-Raf disruption/FRET/MOA assay; read-out: IC50* KRAS G13C FRET data. The method, boiled down: as §1
Another test deals with K-Ras G12C (Homo sapiens (Human), UniProt P01116+P62937, G12C). The experiment in a line: Ras-Raf (BRAF RBD) disruption / FRET / MOA assay, KRAS G12C. As to conditions: KRAS G12C; Ras-Raf disruption/FRET/MOA assay; read-out: IC50* KRAS G12C FRET data. The format is biochemical. In a few lines:
as §1

Values joined by “and” are separate entries in the source; they are usually repeats but may differ in a detail not shown here. Equal entries are not always repeated.

Chain of KRAS Q61H (P01116-2 other isoform, or with tags, fused parts or gaps Q61H): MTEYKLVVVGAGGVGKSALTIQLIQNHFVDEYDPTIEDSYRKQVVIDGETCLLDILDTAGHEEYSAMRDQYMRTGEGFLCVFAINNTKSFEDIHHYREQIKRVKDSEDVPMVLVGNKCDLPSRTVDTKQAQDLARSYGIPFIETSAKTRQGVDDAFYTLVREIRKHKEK
Chain of KRAS Q61H (P62937 whole entry): as the sequence (P62937 whole entry) above
Chain of KRAS G13D (P01116-2 other isoform, or with tags, fused parts or gaps G13D): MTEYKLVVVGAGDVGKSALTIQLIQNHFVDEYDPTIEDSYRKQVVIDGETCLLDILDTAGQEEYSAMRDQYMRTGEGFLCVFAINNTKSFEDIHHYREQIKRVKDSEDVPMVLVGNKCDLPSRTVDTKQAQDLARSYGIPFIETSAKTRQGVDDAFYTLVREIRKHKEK
Chain of KRAS G13D (P62937 whole entry): as the sequence (P62937 whole entry) above
Chain of K-Ras G13C (P01116-2 other isoform, or with tags, fused parts or gaps G13C): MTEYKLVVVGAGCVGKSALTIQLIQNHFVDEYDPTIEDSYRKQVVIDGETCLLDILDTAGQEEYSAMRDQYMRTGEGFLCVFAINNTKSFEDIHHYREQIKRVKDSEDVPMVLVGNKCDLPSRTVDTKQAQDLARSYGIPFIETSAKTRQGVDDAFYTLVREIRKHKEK
Chain of K-Ras G13C (P62937 whole entry): as the sequence (P62937 whole entry) above
Chain of K-Ras G12C (P01116-2 other isoform, or with tags, fused parts or gaps G12C): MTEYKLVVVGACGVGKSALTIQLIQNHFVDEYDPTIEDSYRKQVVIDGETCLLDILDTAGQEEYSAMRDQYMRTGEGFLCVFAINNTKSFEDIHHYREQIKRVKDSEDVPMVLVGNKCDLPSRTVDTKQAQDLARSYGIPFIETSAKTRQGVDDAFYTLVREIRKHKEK
Chain of K-Ras G12C (P62937 whole entry): as the sequence (P62937 whole entry) above
Chain of NRAS WT (P01111 whole entry): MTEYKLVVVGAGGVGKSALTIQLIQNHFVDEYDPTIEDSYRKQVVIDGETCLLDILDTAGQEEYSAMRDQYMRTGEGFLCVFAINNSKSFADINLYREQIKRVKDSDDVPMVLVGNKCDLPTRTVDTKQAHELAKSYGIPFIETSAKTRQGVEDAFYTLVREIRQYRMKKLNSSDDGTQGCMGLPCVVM
Chain of NRAS WT (P62937 whole entry): as the sequence (P62937 whole entry) above
Chain of KRAS G12V (P01116-2 other isoform, or with tags, fused parts or gaps G12V): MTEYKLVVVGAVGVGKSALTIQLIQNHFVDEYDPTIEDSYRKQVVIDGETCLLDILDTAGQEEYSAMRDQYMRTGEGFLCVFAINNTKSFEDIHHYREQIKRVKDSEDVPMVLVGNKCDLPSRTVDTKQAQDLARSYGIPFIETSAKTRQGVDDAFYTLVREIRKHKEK
Chain of KRAS G12V (P62937 whole entry): as the sequence (P62937 whole entry) above
Chain of NRAS G12C (P01111 whole entry G12C): as the sequence (P01111 whole entry) above, with G12C counted along it
Chain of NRAS G12C (P62937 whole entry): as the sequence (P62937 whole entry) above
Chain of NRAS Q61R (P01111 whole entry Q61R): as the sequence (P01111 whole entry) above, with Q61R counted along it
Chain of NRAS Q61R (P62937 whole entry): as the sequence (P62937 whole entry) above

Turning to `C=CC(=O)N1CC[C@H](C(=O)N(C)[C@H](C(=O)N[C@H]2Cc3nc(ns3)-c3ccc4c(c3)c(c(-c3cncnc3)n4CC)CC(C)(C)COC(=O)[C@@H]3CCCN(N3)C2=O)C(C)C)C1` [Example A285], the IC50 at KRAS G13D was greater than 10000 nM; at KRAS G12V, greater than 10000 nM; on KRAS Q61H, greater than 10000 nM; in the test with NCI-H358 (K-Ras G12C) it was greater than 1000 nM; on NRAS G12C it was greater than 10000 nM; on NRAS WT, greater than 10000 nM. Besides, the IC50 at KRAS WT, on NRAS Q61R, on K-Ras G13C and on K-Ras G12C was greater than 10000 nM in each case.
As to `C=CC(=O)N1CC[C@H](C(=O)N(C)[C@H](C(=O)N[C@H]2Cc3cc(O)cc(c3)-c3ccc4c(c3)c(c(-c3cnn5c3[C@@H](OC)CCC5)n4CC)CC(C)(C)COC(=O)[C@@H]3CCCN(N3)C2=O)C(C)C)C1` [Example A300], the IC50 is 10 to 100 nM on KRAS G13D; 10 to 100 nM at KRAS G12V; 10 to 100 nM on KRAS Q61H; less than 10 nM with NCI-H358 (K-Ras G12C); less than 10 nM at NRAS G12C; 10 to 100 nM on NRAS WT. Besides, the IC50 is 10 to 100 nM on KRAS WT, 100 to 1000 nM at NRAS Q61R, 10 to 100 nM on K-Ras G13C and less than 10 nM at K-Ras G12C.
In the case of `CCn1c(-c2cccnc2[C@H](C)OC)c2c3cc(ccc31)-c1cccc(c1)C[C@H](NC(=O)C(COC1CN(C(=O)C#CC(C)(C)N(C)C)C1)C(C)C)C(=O)N1CCC[C@H](N1)C(=O)OCC(C)(C)C2` (stereo partly drawn) [Example A316, (2R)-2-(((1-(4-(dimethylamino)-4-methylpent-2-ynoyl)azetidin-3-yl)oxy)methyl)-N-((6^3S,4S)-1^1-ethyl-1^2-(2-((S)-1-methoxyethyl)pyridin-3-yl)-10,10-dimethyl-5,7-dioxo-6^1,6^2,6^3,6^4,6^5,6^6-hexahydro-1^1H-8-oxa-1(5,3)-indola-6(1,3)-pyridazina-2(1,3)-benzenacycloundecaphane-4-yl)-3-methylbutanamide], the 50% inhibitory concentration (IC50) at KRAS G13D is greater than 10000 nM; at KRAS G12V it was 1 µM to 10 µM and > 10 µM (2×); on KRAS Q61H, greater than 10000 nM; in the test with NCI-H358 (K-Ras G12C), less than 10 nM; on NRAS G12C, less than 10 nM; on NRAS WT, greater than 10000 nM. In addition, the IC50 is greater than 10000 nM on KRAS WT; greater than 10000 nM on NRAS Q61R; 1 µM to 10 µM (2×) and > 10 µM on K-Ras G13C; less than 10 nM at K-Ras G12C.
Take `C=CC(=O)N1CCC(C(=O)N(C)[C@H](C(=O)N[C@H]2Cc3cc(CF)cc(c3)-c3ccc4c(c3)c(c(-c3cccnc3[C@H](C)OC)n4CC(F)(F)F)CC(C)(C)COC(=O)[C@@H]3CCCN(N3)C2=O)C(C)C)C1` (some centres unmarked) [Example A659]: the IC50 at KRAS G13D is 100 to 1000 nM; at KRAS G12V it was 100 to 1000 nM; on KRAS Q61H it was 100 to 1000 nM; with NCI-H358 (K-Ras G12C), less than 10 nM; on NRAS G12C, 10 to 100 nM; on NRAS WT, 100 to 1000 nM. Moreover, the half-inhibitory concentration (IC50) at KRAS WT was in the range of 100 to 1000 nM; on NRAS Q61R it was 100 to 1000 nM; on K-Ras G13C it was 100 to 1000 nM; on K-Ras G12C, 10 to 100 nM.
`CCn1c(-c2cccnc2[C@H](C)OC)c2c3cc(ccc31)N1CCO[C@@H](C[C@H](NC(=O)[C@H](C(C)C)N(C)C(=O)[C@@]3(F)CCC(C(=O)C#CC(C)(C)N4CCC4)C3)C(=O)N3CCC[C@H](N3)C(=O)OCC(C)(C)C2)C1` (some centres unmarked) [Example A726]: the half-inhibitory concentration (IC50) at KRAS G13D is 1000 to 10000 nM; at KRAS G12V, 1000 to 10000 nM; on KRAS Q61H it was 1000 to 10000 nM; in the test on NCI-H358 (K-Ras G12C) it was less than 10 nM; at NRAS G12C, 10 to 100 nM; on NRAS WT, 1000 to 10000 nM. The IC50 is 1000 to 10000 nM on KRAS WT, greater than 10000 nM on NRAS Q61R, 100 to 1000 nM at K-Ras G13C and less than 10 nM at K-Ras G12C.

One may read the IC50 as the concentration needed to halve the response being measured.

The values are drawn from patent publication US11566007B2, “Ras inhibitors” (Revolution Medicines, Inc., priority 2019, dated 2023).
